From US20260263651A1, “WOUND DRESSING” (UNIVERSITY OF SUNDERLAND, priority 2023, published 2026)

Experiments:
[1] = tested on: Escherichia coli; experiment: Microbiological evaluation of standardised bacterial suspensions, modified wound dressing with absorbed substrate on agar; assay type: cell-based; set-up: key to Observable colour change: − indicates no colour change; +− indicates relatively discernible blue colour change; + indicates a moderately strong blue colour change; ++ indicates a strong blue colour change
Procedure: (§1) ACTIVHEAL® simply A (10×20 cm) non-adhesive foam samples were provided by Advanced Medical Solutions Ltd. The wound dressings were cut into ~5-10×5-10 mm squares, using an ethanol washed pair of scissors. A maximum of 0.20 g of the material was added into 10 mL DI water, and the pH was adjusted to ~3 by the addition of 0.1 M aq. HCl solution. The solution was stirred for 10 mins at room temperature, followed by the addition of 0.33 g EDC •HCl (1.7 mmol) and the pH was maintained at ~3 by the addition of 0.1 M aq. HCl solution. The solution was stirred at room temperature for 10 mins followed by the addition of 0.88 g compound 8 which was dissolved in DMSO or DMF. The mixture was stirred at room temperature for 48 h. The wound dressings were filtered and were washed with ethanol. To ensure the full removal of any non-coupled amide (8), the foam samples were resuspended in ethanol, stirred for 10 mins and filtered, and this process was repeated until the amide (8) was not detectable from the filtrate (this could be maintained by TLC or HPLC evaluation). The samples were dried in a vacuum oven for 3-4 h.
(§2) The aqueous solution of 3a or 3b was prepared by the following: the desired amount of the enzymatic substrate (3.0 mg for 300 mg/L, 6.0 mg for 600 mg/L, 9.0 mg for 900 mg/L, 15.0 mg for 1500 mg/L, and 30.0 mg for 3000 mg/L) was weighed out on a 4 decimal place balance within ±0.3 mg error limit into a 10 mL volumetric flask and was adjusted to 10.0 mL with DI water. The solutions were absorbed into the foam samples and dried in a vacuum oven at 40° C. overnight.
(§3) Bacterial strains were routinely cultured from working stocks in Tryptic Soy Broth (TSB) and incubated at 37° C. overnight with shaking at 150 RPM. Overnight cultures were centrifuged at 3000×g for 5 minutes, the supernatant discarded, and the pellet resuspended in 10 mL phosphate buffered saline (PBS). Bacterial inoculums were standardised by optical density at 600 nm on an Amersham Biosciences Ultrospec 10 spectrophotometer (Amersham Biosciences, Amersham, UK) to contain between 1 and 3×10^8 CFU/mL.
However, rapid evaluation of lower bacteria concentrations is essential for the desired clinical application. Three different solutions (300, 600 and 1500 mg/L) were prepared from the substrates 3a and 3b in micro filtered DI water as a solvent. The solutions were absorbed into the wound dressing samples, which were dried overnight under vacuum at 40° C.
(§4) Two Gram negative strains (Escherichia coli—EC and Pseudomonas aeruginosa—PSA) and a Gram-positive bacterium (Staphylococcus aureus—SA) were evaluated. The bacteria were incubated overnight, centrifuged at 3000×g for 5 mins, the supernatant was discarded, and the residue pellets were resuspended in 10 mL PBS. The inoculums were standardised by measuring the optical density at 600 nm to assure a 1-3×10^8 CFU/mL. The standardised solutions were further diluted to prepare 1-3×10^6 and 1-3×10^4 CFU/mL suspension. 1×10^6 CFU would be an ideal breakpoint for a positive result, as this concentration coincides well with a level of colonisation that would likely go on to produce an infection.
(§5) 100 μL bacterial suspensions were smeared over agar plates. Wound dressing samples were added to the top of the agar and were rolled over a few times (to ensure a full coverage and to ease the visibility of the colour change). The plates were incubated at 37° C., and the results were recorded after 24 h, after 48 h, after 72 h. The results are shown in Table 3-5; − indicates no colour change, +− indicates relatively discernible blue colour change, + indicates a moderately strong blue colour change and ++ indicates a strong blue colour change.

[2] = tested on: Staphylococcus aureus; experiment: as above; assay type: cell-based; set-up: key to Observable colour change: − indicates no colour change; +− indicates relatively discernible blue colour change; + indicates a moderately strong blue colour change; ++ indicates a strong blue colour change; details: for colour change: SA
Procedure: as §1, §2, §3
However, rapid evaluation of lower bacteria concentrations is essential for the desired clinical application. […] The solutions were absorbed into the wound dressing samples, which were dried overnight under vacuum at 40° C.
as §4, §5

CC(C)C[C@H](N)C(=O)Nc1ccc(N(C)C)cc1.Cl [3a, (2S)-2-amino-N-[4-(dimethylamino)phenyl]-4-methyl-pentanamide hydrochloride]
Observable colour change ([1]; EC 10^4, substrate 300 mg/L, 24 h at 37° C.): −
Observable colour change ([1]; EC 10^4, substrate 300 mg/L, 48 h at 37° C.): −
Observable colour change ([1]; EC 10^4, substrate 300 mg/L, 72 h at 37° C.): −
Observable colour change ([1]; EC 10^4, substrate 900 mg/L, 24 h at 37° C.): −
Observable colour change ([1]; EC 10^4, substrate 900 mg/L, 48 h at 37° C.): −
Observable colour change ([1]; EC 10^4, substrate 900 mg/L, 72 h at 37° C.): +
Observable colour change ([1]; EC 10^4, substrate 1500 mg/L, 24 h at 37° C.): −
Observable colour change ([1]; EC 10^4, substrate 1500 mg/L, 48 h at 37° C.): +−
Observable colour change ([1]; EC 10^4, substrate 1500 mg/L, 72 h at 37° C.): +
Observable colour change ([1]; EC 10^6, substrate 300 mg/L, 24 h at 37° C.): −
Observable colour change ([1]; EC 10^6, substrate 300 mg/L, 48 h at 37° C.): +−
Observable colour change ([1]; EC 10^6, substrate 300 mg/L, 72 h at 37° C.): +
Observable colour change ([1]; EC 10^6, substrate 900 mg/L, 24 h at 37° C.): −
Observable colour change ([1]; EC 10^6, substrate 900 mg/L, 48 h at 37° C.): +−
Observable colour change ([1]; EC 10^6, substrate 900 mg/L, 72 h at 37° C.): +
Observable colour change ([1]; EC 10^6, substrate 1500 mg/L, 24 h at 37° C.): +−
Observable colour change ([1]; EC 10^6, substrate 1500 mg/L, 48 h at 37° C.): +
Observable colour change ([1]; EC 10^6, substrate 1500 mg/L, 72 h at 37° C.): ++
colour change ([1]; EC 10^8, 10^6 or 10^4 CFU, after 72 h, every tested substrate concentration): moderate or strong blue colour changes
Observable colour change ([1]; EC 10^8, substrate 300 mg/L, 24 h at 37° C.): +−
Observable colour change ([1]; EC 10^8, substrate 300 mg/L, 48 h at 37° C.): +
Observable colour change ([1]; EC 10^8, substrate 300 mg/L, 72 h at 37° C.): ++
Observable colour change ([1]; EC 10^8, substrate 900 mg/L, 24 h at 37° C.): +−
Observable colour change ([1]; EC 10^8, substrate 900 mg/L, 48 h at 37° C.): +
Observable colour change ([1]; EC 10^8, substrate 900 mg/L, 72 h at 37° C.): ++
Observable colour change ([1]; EC 10^8, substrate 1500 mg/L, 24 h at 37° C.): +−
Observable colour change ([1]; EC 10^8, substrate 1500 mg/L, 48 h at 37° C.): +
Observable colour change ([1]; EC 10^8, substrate 1500 mg/L, 72 h at 37° C.): ++
colour change ([1]; EC, substrate 900 or 1500 mg/L, printed in the 48 h paragraph): moderate or strong colour change
Observable colour change ([2]; SA 10^4, substrate 300 mg/L, 24 h at 37° C.): −
Observable colour change ([2]; SA 10^4, substrate 300 mg/L, 48 h at 37° C.): −
Observable colour change ([2]; SA 10^4, substrate 300 mg/L, 72 h at 37° C.): −
Observable colour change ([2]; SA 10^4, substrate 900 mg/L, 24 h at 37° C.): −
Observable colour change ([2]; SA 10^4, substrate 900 mg/L, 48 h at 37° C.): −
Observable colour change ([2]; SA 10^4, substrate 900 mg/L, 72 h at 37° C.): −
Observable colour change ([2]; SA 10^4, substrate 1500 mg/L, 24 h at 37° C.): −
Observable colour change ([2]; SA 10^4, substrate 1500 mg/L, 48 h at 37° C.): −
Observable colour change ([2]; SA 10^4, substrate 1500 mg/L, 72 h at 37° C.): −
Observable colour change ([2]; SA 10^6, substrate 300 mg/L, 24 h at 37° C.): −
Observable colour change ([2]; SA 10^6, substrate 300 mg/L, 48 h at 37° C.): −
Observable colour change ([2]; SA 10^6, substrate 300 mg/L, 72 h at 37° C.): −
Observable colour change ([2]; SA 10^6, substrate 900 mg/L, 24 h at 37° C.): −
Observable colour change ([2]; SA 10^6, substrate 900 mg/L, 48 h at 37° C.): −
Observable colour change ([2]; SA 10^6, substrate 900 mg/L, 72 h at 37° C.): −
Observable colour change ([2]; SA 10^6, substrate 1500 mg/L, 24 h at 37° C.): −
Observable colour change ([2]; SA 10^6, substrate 1500 mg/L, 48 h at 37° C.): −
Observable colour change ([2]; SA 10^6, substrate 1500 mg/L, 72 h at 37° C.): −
Observable colour change ([2]; SA 10^8, substrate 300 mg/L, 24 h at 37° C.): −
Observable colour change ([2]; SA 10^8, substrate 300 mg/L, 48 h at 37° C.): −
Observable colour change ([2]; SA 10^8, substrate 300 mg/L, 72 h at 37° C.): −
Observable colour change ([2]; SA 10^8, substrate 900 mg/L, 24 h at 37° C.): −
Observable colour change ([2]; SA 10^8, substrate 900 mg/L, 48 h at 37° C.): −
Observable colour change ([2]; SA 10^8, substrate 900 mg/L, 72 h at 37° C.): −
Observable colour change ([2]; SA 10^8, substrate 1500 mg/L, 24 h at 37° C.): −
Observable colour change ([2]; SA 10^8, substrate 1500 mg/L, 48 h at 37° C.): +−
Observable colour change ([2]; SA 10^8, substrate 1500 mg/L, 72 h at 37° C.): +−
colour change ([2]; 48 h paragraph, substrate 1500 mg/L): weak, but discernible colour change
colour change ([2]; after 72 h, substrate 1500 mg/L): weak, hardly visible colour change
